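Five compound concentrations were applied to cells in 96-well plates for 48 hours; endpoints were derived by simple linear interpolation of the resulting dose-response curve. TGI: concentration producing complete growth inhibition.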
How the values were obtained:
Assay in all cases: inhibition of tumour cell growth, NCI panel, 48 h
[1] = system: 786-0 renal
[2] = system: A498 renal
[3] = system: A549 NSCLC
[4] = system: ACHN renal
[5] = system: BT-549 breast
[6] = system: CAKI-1 renal
[7] = system: CCRF-CEM leukemia
[8] = system: COLO 205 colon
[9] = system: DU-145 prostate
[10] = system: EKVX NSCLC
[11] = system: HCC-2998 colon
[12] = system: HCT-116 colon
[13] = system: HCT-15 colon
[14] = system: HL-60(TB) leukemia
[15] = system: HOP-62 NSCLC
[16] = system: HOP-92 NSCLC
[17] = system: HS 578T breast
[18] = system: HT29 colon
[19] = system: IGROV1 ovarian
[20] = system: K-562 leukemia
[21] = system: KM12 colon
[22] = system: LOX IMVI melanoma
[23] = system: M14 melanoma
[24] = system: MALME-3M melanoma
[25] = system: MCF7 breast
[26] = system: MDA-MB-231 breast
[27] = system: MDA-MB-435
[28] = system: MDA-N
[29] = system: MOLT-4 leukemia
[30] = system: NCI-H226 lung
[31] = system: NCI-H23 lung
[32] = system: NCI-H460 lung
[33] = system: NCI-H522 lung
[34] = system: NCI/ADR-RES ovarian
[35] = system: OVCAR-3 ovarian
[36] = system: OVCAR-4 ovarian
[37] = system: OVCAR-5 ovarian
[38] = system: OVCAR-8 ovarian
[39] = system: PC-3 prostate
[40] = system: RPMI-8226 leukemia
[41] = system: RXF 393 renal
[42] = system: SF-268 CNS
[43] = system: SF-295 CNS
[44] = system: SF-539 CNS
[45] = system: SK-MEL-2 melanoma
[46] = system: SK-MEL-28 melanoma
[47] = system: SK-MEL-5 melanoma
[48] = system: SK-OV-3 ovarian
[49] = system: SN12C renal
[50] = system: SNB-19 CNS
[51] = system: SNB-75 CNS
[52] = system: SR leukemia
[53] = system: SW-620 colon
[54] = system: T-47D breast
[55] = system: TK-10 renal
[56] = system: U251 CNS
[57] = system: UACC-257 melanoma
[58] = system: UACC-62 melanoma
[59] = system: UO-31 renal

CN(C)CCNc1ccc(CO)c2oc3ccc(O)cc3c(=O)c12
TGI [1]: 46.1 µM | TGI [2]: 28.3 µM | TGI [3]: 63.9 µM | TGI [4]: 44 µM | TGI [5]: 28.4 µM | TGI [6]: > 100 µM | TGI [7]: 34.1 µM | TGI [8]: 21.6 µM | TGI [9]: 53.9 µM | TGI [10]: 47.5 µM | TGI [11]: 27.9 µM | TGI [12]: 52.2 µM | TGI [13]: 29.9 µM | TGI [14]: 30.9 µM | TGI [15]: 27.3 µM | TGI [16]: 33.4 µM | TGI [17]: 33.4 µM | TGI [18]: 44.9 µM | TGI [19]: 57.2 µM | TGI [20]: 32.4 µM | TGI [21]: 40 µM | TGI [22]: 27 µM | TGI [23]: 29.5 µM | TGI [24]: 26.6 µM | TGI [25]: 58.1 µM | TGI [26]: 37.7 µM | TGI [27]: 27.1 µM | TGI [28]: 25.7 µM | TGI [29]: 14.3 µM | TGI [30]: 47.7 µM | TGI [31]: 24.6 µM | TGI [32]: 17.4 µM | TGI [33]: 17.1 µM | TGI [34]: 74.3 µM | TGI [35]: 42.1 µM | TGI [36]: 28.7 µM | TGI [37]: 38 µM | TGI [38]: 14.4 µM | TGI [39]: 29.3 µM | TGI [40]: 51.1 µM | TGI [41]: 28.4 µM | TGI [42]: 42.2 µM | TGI [43]: 41.5 µM | TGI [44]: 25.1 µM | TGI [45]: 30.7 µM | TGI [46]: 32 µM | TGI [47]: 27.9 µM | TGI [48]: 37.4 µM | TGI [49]: > 66.3 µM | TGI [50]: 55.9 µM | TGI [51]: 47.1 µM | TGI [52]: 4.36 µM | TGI [53]: 61.3 µM | TGI [54]: 59.4 µM | TGI [55]: 69 µM | TGI [56]: 45.7 µM | TGI [57]: 17.4 µM | TGI [58]: 25 µM | TGI [59]: 31.3 µM

COc1ccc(-c2cc(-c3cc(C)cc(Br)c3O)no2)cc1
TGI [1]: 31.6 µM | TGI [2]: 13 µM | TGI [3]: 57 µM | TGI [4]: 24 µM | TGI [5]: 57.1 µM | TGI [6]: 24 µM | TGI [9]: 36.2 µM | TGI [10]: 78.3 µM | TGI [12]: 28.5 µM | TGI [13]: > 100 µM | TGI [14]: > 100 µM | TGI [15]: 41.9 µM | TGI [17]: > 100 µM | TGI [18]: > 100 µM | TGI [19]: > 100 µM | TGI [20]: > 100 µM | TGI [21]: > 100 µM | TGI [22]: > 100 µM | TGI [23]: > 100 µM | TGI [25]: 42.4 µM | TGI [26]: 64.6 µM | TGI [27]: > 100 µM | TGI [28]: > 100 µM | TGI [29]: > 100 µM | TGI [30]: 42.4 µM | TGI [31]: 99.7 µM | TGI [32]: 44.5 µM | TGI [33]: 30.2 µM | TGI [34]: > 100 µM | TGI [35]: 23.9 µM | TGI [36]: 13.2 µM | TGI [37]: 88.9 µM | TGI [38]: > 100 µM | TGI [39]: 33.5 µM | TGI [40]: > 100 µM | TGI [42]: 22.8 µM | TGI [43]: 14.4 µM | TGI [44]: 25 µM | TGI [45]: 75 µM | TGI [46]: > 100 µM | TGI [47]: 24.3 µM | TGI [49]: 85.2 µM | TGI [50]: 58 µM | TGI [51]: 8.73 µM | TGI [52]: > 100 µM | TGI [53]: > 100 µM | TGI [54]: 34 µM | TGI [55]: 38.5 µM | TGI [56]: 33.5 µM | TGI [57]: > 100 µM | TGI [58]: 38.9 µM | TGI [59]: 31.9 µM

N#CCCC(CCC#N)(CCC#N)NO
TGI [1]: > 100 µM | TGI [3]: > 100 µM | TGI [4]: > 100 µM | TGI [5]: > 100 µM | TGI [6]: > 100 µM | TGI [8]: > 100 µM | TGI [9]: > 100 µM | TGI [10]: > 100 µM | TGI [12]: > 100 µM | TGI [13]: > 100 µM | TGI [14]: > 100 µM | TGI [16]: > 100 µM | TGI [17]: > 100 µM | TGI [18]: > 100 µM | TGI [19]: > 100 µM | TGI [20]: > 100 µM | TGI [21]: > 100 µM | TGI [23]: > 100 µM | TGI [24]: > 100 µM | TGI [25]: > 100 µM | TGI [26]: > 100 µM | TGI [27]: > 100 µM | TGI [28]: > 100 µM | TGI [30]: > 100 µM | TGI [31]: > 100 µM | TGI [32]: > 100 µM | TGI [33]: 46.1 µM | TGI [34]: > 100 µM | TGI [37]: > 100 µM | TGI [38]: > 100 µM | TGI [39]: > 100 µM | TGI [40]: > 100 µM | TGI [41]: > 100 µM | TGI [42]: > 100 µM | TGI [43]: > 100 µM | TGI [44]: > 100 µM | TGI [45]: > 100 µM | TGI [47]: > 100 µM | TGI [48]: > 100 µM | TGI [49]: > 100 µM | TGI [50]: > 100 µM | TGI [51]: > 100 µM | TGI [52]: > 100 µM | TGI [53]: > 100 µM | TGI [54]: > 100 µM | TGI [55]: > 100 µM | TGI [56]: > 100 µM | TGI [57]: > 100 µM | TGI [58]: > 100 µM | TGI [59]: > 100 µM

OCC1OC(n2cnc3c2NC=NC[C@H]3O)C(Cl)C1O (stereo partly specified)
TGI [1]: > 100 µM | TGI [2]: > 100 µM | TGI [3]: > 100 µM | TGI [4]: > 100 µM | TGI [5]: > 100 µM | TGI [6]: > 100 µM | TGI [7]: > 100 µM | TGI [8]: > 100 µM | TGI [9]: > 100 µM | TGI [10]: > 100 µM | TGI [11]: > 100 µM | TGI [12]: > 100 µM | TGI [13]: > 100 µM | TGI [14]: > 100 µM | TGI [15]: > 100 µM | TGI [16]: > 100 µM | TGI [17]: > 100 µM | TGI [18]: > 100 µM | TGI [19]: > 100 µM | TGI [21]: > 100 µM | TGI [22]: > 100 µM | TGI [23]: > 100 µM | TGI [24]: > 100 µM | TGI [25]: > 100 µM | TGI [26]: > 100 µM | TGI [27]: > 100 µM | TGI [28]: > 100 µM | TGI [29]: > 100 µM | TGI [31]: > 100 µM | TGI [32]: > 100 µM | TGI [33]: > 100 µM | TGI [34]: > 100 µM | TGI [35]: > 100 µM | TGI [36]: > 100 µM | TGI [37]: > 100 µM | TGI [38]: > 100 µM | TGI [39]: > 100 µM | TGI [40]: > 100 µM | TGI [42]: > 100 µM | TGI [43]: > 100 µM | TGI [44]: > 100 µM | TGI [45]: > 100 µM | TGI [46]: > 100 µM | TGI [47]: > 100 µM | TGI [49]: > 100 µM | TGI [50]: > 100 µM | TGI [51]: > 100 µM | TGI [52]: > 100 µM | TGI [53]: > 100 µM | TGI [54]: > 100 µM | TGI [55]: > 100 µM | TGI [56]: > 100 µM | TGI [57]: > 100 µM | TGI [58]: > 100 µM | TGI [59]: > 100 µM
